Like-named read-outs stand apart in the source and are kept apart here.
How the values were obtained:
HBV = HBV inhibitory activity: HBV DNA in the culture medium of HepG2.2.15 cells by q-PCR; type: cell-based; settings: Hepatitis B virus, HepG2.2.15, 144 h
Summary of the method: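 HepG2.2.15 cells in 2% FBS medium, 40,000 per well, treated 6 days with compound (medium refreshed once), eight 3-fold dilutions from 10 μM top. HBV DNA extracted from culture medium and quantified by q-PCR; EC50 averaged over repeats. Cytotoxicity run in parallel at 5,000 cells per well, top 100 μM, giving CC50.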

[1] = Cytotoxicity determination in HepG2.2.15 cells (CCK-8); type: cell-based; settings: human, 6 days of compound treatment, CCK-8, highest concentration 100 μM
Summary of the method: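 HepG2.2.15 cells seeded at 5,000 cells/well in 2% FBS medium, incubated overnight at 37° C., then treated 6 days with compounds (8 points, 3-fold dilutions, top 100 μM), medium refreshed once midway. CCK-8 added for 2.5 h; A450 read against 630 nm reference; CC50 calculated, averaged over repeats.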

[2] = HepG2.2.15 cells, 6 days of compound treatment, HBV DNA in culture medium by q-PCR, highest concentration 10 μM, read-out: EC50

SMILES	EC50 (HBV; [2]) [nM]	CC50 at 6 days [1] [nM]	EC50 (HBV) [nM]
CCOC(=O)C1=C([C@H]2CC[C@H](C(=O)O)CC2)NC(c2nccs2)=NC1c1ccccc1Br (stereo partly drawn) [Compound 148A, (trans)-4-(6-(2-bromophenyl)-5-(ethoxycarbonyl)-2-(thiazol-2-yl)-3,6-dihydropyrimidin-4-yl)cyclohexane-1-carboxylic Acid]	97	29400	–
COC(=O)C1=C(C2CN(S(=O)(=O)C3CCC3)C2)NC(c2nccs2)=NC1c1ccc(F)cc1Cl (stereo not shown) [Compound 80, Methyl 4-(2-chloro-4-fluorophenyl)-6-(1-(cyclobutylsulfonyl)-azetidin-3-yl)-2-(thiazol-2-yl)-1,4-dihydropyrimidine-5-carboxylate]	107	6300	–
COC(=O)C1=C(C2CCN(C(=O)CNC(=O)OC(C)(C)C)CC2)NC(c2nccs2)=NC1c1ccc(F)cc1Cl (stereo not shown) [Compound 129, 6-[1-(2-tert-Butoxycarbonylamino-acetyl)-piperidin-4-yl]-4-(2-chloro-4-fluoro-phenyl)-2-thiazol-2-yl-1,4-dihydro-pyrimidine-5-carboxylic Acid Methyl Ester]	55	28200	–
CCOC(=O)C1=C([C@@H]2C[C@H]2CC(=O)O)NC(c2nccs2)=NC1c1ccc(F)cc1Cl (single isomer, unassigned) [Compound 92, 2-(trans-2-(6-(2-Chloro-4-fluorophenyl)-5-(ethoxycarbonyl)-2-(thiazol-2-yl)-3,6-dihydropyrimidin-4-yl)cyclopropyl)acetic Acid]	326	99000	–
COC(=O)C1=C([C@H]2CC[C@H](S(=O)(=O)N(C)C)CC2)NC(c2nccs2)=NC1c1ccc(F)c(F)c1Cl (single isomer, unassigned) [Compound 233C, (trans)-methyl 4-(2-chloro-3,4-difluorophenyl)-6-(4-(N,N-dimethylsulfamoyl)cyclohexyl)-2-(thiazol-2-yl)-1,4-dihydropyrimidine-5-carboxylate]	13	5600	–
COC(=O)C1=C(C2CCN(S(=O)(=O)c3cnn([C@H]4C[C@H](C(=O)O)C4)c3)CC2)NC(c2nccs2)=NC1c1ccc(F)cc1Cl (stereo partly drawn) [Compound 470, (trans)-3-(4-((4-(6-(2-Chloro-4-fluorophenyl)-5-(methoxycarbonyl)-2-(thiazol-2-yl)-3,6-dihydropyrimidin-4-yl)piperidin-1-yl)sulfonyl)-1H-pyrazol-1-yl)cyclobutanecarboxylic Acid]	56	20100	–
COC(=O)C1=C(C2CCN(C(C)=O)CC2)NC(c2nccs2)=NC1c1ccc(F)cc1Cl (single isomer, unassigned) [Compound 2B, Methyl 6-(1-acetylpiperidin-4-yl)-4-(2-chloro-4-fluorophenyl)-2-(thiazol-2-yl)-1,4-dihydropyrimidine-5-carboxylate]	338	> 100000	–
CCOC(=O)C1=C([C@@H]2CCN(S(C)(=O)=O)[C@@H](CO)C2)NC(c2nccs2)=NC1c1ccc(F)cc1Cl (single isomer, unassigned) [Compound 379C, ethyl 4-(2-chloro-4-fluorophenyl)-6-((trans)-2-(hydroxymethyl)-1-(methylsulfonyl)piperidin-4-yl)-2-(thiazol-2-yl)-1,4-dihydropyrimidine-5-carboxylate]	55	32600	–
COC(=O)C1=C(C2CCN(S(=O)(=O)[C@H]3CC[C@H](C(=O)O)C3)CC2)NC(c2nccs2)=NC1c1ccc(F)cc1Cl (relative stereo) [Compound 311A, (trans)-3-((4-(6-(2-Chloro-4-fluorophenyl)-5-(methoxycarbonyl)-2-(thiazol-2-yl)-3,6-dihydropyrimidin-4-yl)piperidin-1-yl)sulfonyl)-cyclopentanecarboxylic Acid]	89	> 100000	–
COC(=O)C1=C(C2CCN(S(=O)(=O)CC(C)(C)C(=O)O)CC2)NC(c2nccs2)=NC1c1ccc(F)cc1Cl (stereo not shown) [Compound 223, 3-((4-(6-(2-Chloro-4-fluorophenyl)-5-(methoxycarbonyl)-2-(thiazol-2-yl)-3,6-dihydropyrimidin-4-yl)piperidin-1-yl)sulfonyl)-2,2-dimethylpropanoic Acid]	145	50000	–
CNS(=O)(=O)N1CCC(C2=C(C(=O)OC)C(c3cccc(F)c3Cl)N=C(c3nccs3)N2)CC1 (single isomer, unassigned) [Compound 115B, 4-(2-Chloro-3-fluoro-phenyl)-6-(1-methylsulfamoyl-piperidin-4-yl)-2-thiazol-2-yl-1,4-dihydro-pyrimidine-5-carboxylic Acid Methyl Ester]	342	19100	–
COC(=O)C1=C(C2CCN(S(=O)(=O)C[C@H]3CC[C@H](C(=O)O)CC3)CC2)NC(c2nccs2)=NC1c1cccc(F)c1C (stereo partly drawn) [Compound 444b, (trans)-4-(((4-(6-(3-Fluoro-2-methylphenyl)-5-(methoxycarbonyl)-2-(thiazol-2-yl)-3,6-dihydropyrimidin-4-yl)piperidin-1-yl)sulfonyl)methyl)cyclohexanecarboxylic Acid]	59	8300	–
CCOC(=O)C1=C([C@H]2CC[C@H](C(=O)O)CC2)NC(c2nccs2)=NC1c1ccc(F)c(F)c1Br (stereo partly drawn) [Compound 347B, (trans)-4-(6-(2-bromo-3,4-difluorophenyl)-5-(ethoxycarbonyl)-2-(thiazol-2-yl)-3,6-dihydropyrimidin-4-yl)cyclohexanecarboxylic Acid]	110	31400	–
COC(=O)C1=C(C2CC3CCC(C2)N3S(C)(=O)=O)NC(c2nccs2)=NC1c1ccc(F)cc1Cl (single isomer, unassigned) [Compound 38B, 4-(2-Chloro-4-fluoro-phenyl)-6-(8-methanesulfonyl-8-aza-bicyclo[3.2.1]oct-3-yl)-2-thiazol-2-yl-1,4-dihydro-pyrimidine-5-carboxylic Acid Methyl Ester]	239	34100	–
COC(=O)C1=C(C2CCN(S(=O)(=O)C3CCC(CC(=O)O)CC3)CC2)NC(c2nccs2)=NC1c1ccc(F)c(F)c1Cl (stereo not shown) [Compound 478, 2-(4-((4-(6-(2-Chloro-3,4-difluorophenyl)-5-(methoxycarbonyl)-2-(thiazol-2-yl)-3,6-dihydropyrimidin-4-yl)piperidin-1-yl)sulfonyl)cyclohexyl)acetic Acid]	6	23400	–
COC(=O)C1=C([C@H]2CC[C@H](C(=O)O)CC2)NC(c2nccs2)=NC1c1cccc(F)c1Cl (stereo partly drawn) [Compound 17, trans-4-(6-(2-Chloro-3-fluorophenyl)-5-(methoxycarbonyl)-2-(thiazol-2-yl)-3,6-dihydropyrimidin-4-yl)cyclohexanecarboxylic Acid]	300	93800	–
COC(=O)C1=C(C2CCN(S(=O)(=O)[C@H]3CC[C@@H](C(=O)O)CC3)CC2)NC(c2nccs2)=NC1c1ccc(F)cc1Cl (relative stereo) [Compound 313A, (cis)-4-((4-(6-(2-Chloro-4-fluorophenyl)-5-(methoxycarbonyl)-2-(thiazol-2-yl)-3,6-dihydropyrimidin-4-yl)piperidin-1-yl)sulfonyl)-cyclohexanecarboxylic Acid]	58	35000	–
CNC(=O)C1COC(C2=C(C(=O)OC)C(c3cccc(F)c3Cl)N=C(c3nccs3)N2)C1 (stereo not shown) [Compound 263, Methyl 4-(2-chloro-3-fluorophenyl)-6-(4-(methylcarbamoyl)-tetrahydrofuran-2-yl)-2-(thiazol-2-yl)-1,4-dihydropyrimidine-5-carboxylate]	150	81100	–
COC(=O)C1=C(C2CCN(S(=O)(=O)CCOCCOCCO)CC2)NC(c2nccs2)=NC1c1ccc(F)cc1Cl (stereo not shown) [Compound 468, Methyl 4-(2-chloro-4-fluorophenyl)-6-(1-((2-(2-(2-hydroxyethoxy)ethoxy)ethyl)sulfonyl)piperidin-4-yl)-2-(thiazol-2-yl)-1,4-dihydropyrimidine-5-carboxylate]	–	42900	9
COC(=O)C1=C(C2(F)CCN(S(C)(=O)=O)CC2)NC(c2nccs2)=NC1c1cccc(F)c1Cl (stereo not shown) [Compound 36, Methyl 4-(2-chloro-3-fluorophenyl)-6-(4-fluoro-1-(methylsulfonyl)-piperidin-4-yl)-2-(thiazol-2-yl)-1,4-dihydropyrimidine-5-carboxylate]	153	20700	–
COC(=O)C1=C([C@H]2CC[C@H](C(=O)OC)CC2)NC(c2nccs2)=NC1c1cccc(F)c1Cl (single isomer, unassigned) [Compound 16X, Methyl 4-(2-chloro-3-fluorophenyl)-6-(trans-4-(methoxycarbonyl)-cyclohexyl)-2-(thiazol-2-yl)-1,4-dihydropyrimidine-5-carboxylate]	49	29300	–
COC(=O)C1=C([C@H]2C[C@@H](NS(C)(=O)=O)C2)NC(c2nccs2)=NC1c1ccc(F)cc1Cl (single isomer, unassigned) [Compound 206D, (cis)-Methyl 4-(2-chloro-4-fluorophenyl)-6-(3-(methylsulfonamido)cyclobutyl)-2-(thiazol-2-yl)-1,4-dihydropyrimidine-5-carboxylate]	389	39200	–
COC(=O)C1=C([C@H]2CC[C@H](N(CC#N)S(C)(=O)=O)CC2)NC(c2nccs2)=NC1c1ccc(F)cc1Cl (single isomer, unassigned) [Compound 448A, (trans)-Methyl 4-(2-chloro-4-fluorophenyl)-6-(4-(N-(cyanomethyl)methylsulfonamido)cyclohexyl)-2-(thiazol-2-yl)-1,4-dihydropyrimidine-5-carboxylate]	8	> 100000	–

From patent US11639350B2, “Heteroaryldihydropyrimidine derivatives and methods of treating hepatitis B infections” (Janssen Pharmaceutica NV, priority 2018, dated 2023)
